Measured values published in US5422350A, “Nitrogen substituted acridine and cytochrome P450 inhibitors and methods of use” (priority 1992, dated 1995).
Read-outs that look alike come from different tables or passages of the source.

Tests used:
[1] = Single-dose pharmacokinetic and metabolic disposition study of [14C]tacrine HCl in human male volunteers; type: in vivo; conditions: for mean cumulative fecal recovery of 14C activity / mean cumulative urinary recovery of 14C activity / mean total recovery: 5760 min
Experimental: Plasma and red blood cells (RBC) were collected predose and for 48 hours postdose. Urine and feces were collected predose and for 96 hours postdose. Urine and plasma samples were analyzed directly by liquid scintillation spectrometry while RBC and fecal samples were solubilized prior to counting. […] Metabolic profiling of urine was performed by HPLC radioactivity detection. Metabolites were identified by HPLC/photodiode array/mass spectrometry.

[2] = Clinical drug interaction study, tacrine with cimetidine; type: in vivo, human; conditions: 40 mg tacrine with 300-mg four times a day cimetidine vs tacrine alone
Source text: A. Somogyi and M. Muirhead, "Pharmacokinetic Interactions of Cimetidine", CLIN. PHARMACOKIN., Vol. 12, pp. 321-366 (1987).

[3] = Experimental: (§1) Total reaction volume was 3 mL. Reactions were stopped by freezing in liquid nitrogen or dry-ice acetone. […] D. J. Waxman and L. Axaroff, "Phenobarbital induction of cytochrome P-450 Gene Expression", BIOCHEM J, Vol. 281, pp. 577-592 (1992); P. Soucek and I. Gut, supra.
P4501A2 = conditions: co-incubation with tacrine
Experimental: as §1

[4] = In vitro metabolism of 14C-tacrine in rat liver microsomes; conditions: for TAC: w/out NADPH
Experimental: as §1

[5] = Irreversible protein binding of 14C-tacrine-derived radioactivity, human liver microsomes
Experimental: as §1
(§2) C. N. Martin and R. C. Garner: "Covalent Binding In Vitro and In Vivo" in BIOCHEMICAL TOXICOLOGY: A PRACTICAL APPROACH, Eds. K. Snell and B. Mullock, IRL, Wash. D.C. pp. 109-126 (1987).

[6] = Irreversible protein binding of 14C-tacrine-derived radioactivity, rat liver microsomes; conditions: 60 min
Experimental: as §1, §2

P450 1A2 [7] = target: T1, P450 1A2 (Homo sapiens, UniProt P05177); test: in vitro; conditions: human, microsomes
T1 sequence (P05177 2-516 limits assumed): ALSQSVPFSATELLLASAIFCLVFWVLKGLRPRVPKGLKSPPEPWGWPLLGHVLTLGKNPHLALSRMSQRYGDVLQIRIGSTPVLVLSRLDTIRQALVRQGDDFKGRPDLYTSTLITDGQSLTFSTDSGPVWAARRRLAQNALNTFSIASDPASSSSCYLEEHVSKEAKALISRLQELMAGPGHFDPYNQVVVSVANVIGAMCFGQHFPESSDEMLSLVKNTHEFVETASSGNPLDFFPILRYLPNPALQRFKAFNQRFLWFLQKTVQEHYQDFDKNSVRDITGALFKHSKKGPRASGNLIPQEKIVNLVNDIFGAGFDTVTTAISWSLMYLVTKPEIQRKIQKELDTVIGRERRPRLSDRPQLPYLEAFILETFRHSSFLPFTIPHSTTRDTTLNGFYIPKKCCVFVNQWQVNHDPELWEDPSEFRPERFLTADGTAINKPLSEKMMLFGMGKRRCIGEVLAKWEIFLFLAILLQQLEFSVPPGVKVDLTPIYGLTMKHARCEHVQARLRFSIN
Experimental: (§3) PHARMACOL., Vol. 42, pp. 767-772 (1990) was conducted. […] The effect of various enoxacin concentrations (8, 20, and 50 μM) on the extent of irreversible binding was examined in a separate study.

P450 1A2 [8] = test: in vitro
Experimental: as §3

rat hepatocytes = test: Irreversible binding of tacrine-derived radioactivity to rat hepatocytes with chloroquine; type: in vitro ADME; conditions: Tacrine alone
Source text: D. J. Back, H. S. Purba, C. […] PHARMACOL., Vol. 32, pp. 257-264 (1983). Ethoxyresorufin O-deethylation is selectively catalyzed by P450 1A2. C. Gleizes, C. […] PHARMACOL. VOL. 41, pp. 1813-1820 (1991).

[9] = cited from earlier work
[10] = Human Prep (letter not given), w/NADPH, 60 min
[11] = MC induced Rat, w/NADPH, 60 min
[12] = Noninduced Rat, w/NADPH, 60 min
[13] = PB induced Rat, w/NADPH, 60 min
[14] = I induced Rat, with NADPH, N = 3
[15] = MC induced Rat, with NADPH, N = 3
[16] = Noninduced Rat, with NADPH, N = 3
[17] = PB induced Rat, with NADPH, N = 3

For Cl.Nc1c2c(nc3ccccc13)CCCC2.O [Tacrine, 1,2,3,4-tetrahydro-9-acridinamine monohydrate monohydrochloride], the “Mean AUC(O-tldc) for tacrine, 1-, 2-, and 4-hydroxytacrine as part of total mean plasma radioactivity AUC(O-tldc)” value ([1]; 10 mg oral) was “approximately 3%”, the “Mean AUC(O-tldc) for tacrine, 1-, 2-, and 4-hydroxytacrine as part of total mean plasma radioactivity AUC(O-tldc)” value ([1]; 40 mg oral) was roughly 4% and the “mean cumulative fecal recovery of 14C activity” value ([1]; 10-mg oral) was 23.2 % of dose. For the same compound, the “mean cumulative urinary recovery of 14C activity” value ([1]; 10-mg oral) was 56.5 % of dose, the mean total recovery ([1]; 10-mg oral) was 79.4% and the “mean plasma total radioactivity AUC(O-tldc), dose proportionality” value ([1]; 10 and 40 mg oral) was “increased in a dose proportional manner”. For the same compound, the “mean AUC(O-tldc), dose proportionality” value ([1]; 10 and 40 mg oral, plasma) was “increased greater than dose proportionally”, the “difference in metabolic profiles between dose levels” value ([1]; 10 vs 40 mg, urine) was “No apparent differences” and the “mean cumulative fecal recovery of 14C activity” value ([1]; 40-mg oral) was 20.8%. The “mean cumulative urinary recovery of 14C activity” value ([1]; 40-mg oral) was 54.1%, the mean total recovery ([1]; 40-mg oral) was 74.9% and the Tmax ([1]; human, plasma, po, read-out: Time to maximum plasma concentration (tmax)) was roughly 2 h. The “polar radioactive components, of urinary radioactivity” value ([1]; urine through 24 hours) was 67%, the “unchanged drug excreted in urine” value ([1]; urine through 24 hours) was “only trace amounts of unchanged drug excreted” and the higher plasma concentrations [2] was “approximately 40%”. For the same compound, the 1-OH [3, 10] was 0.750 nmole equivalents, the 4-OH [3, 10] was 0.039 nmole equivalents and the “POLAR UNKS” value [3, 10] was 0.039 nmole equivalents. For the same compound, the UNKS [3, 10] was 0.146 nmole equivalents, the TAC ([3]; Human Prep (letter not given), w/out NADPH, 60 min) was 1.34 nmole equivalents and the 1-OH ([3]; Human Prep C, w/NADPH, 60 min) was 0.599 nmole equivalents. The 2-OH ([3]; Human Prep C, w/NADPH, 60 min) was 0.095 nmole equivalents, the “POLAR UNKS” value ([3]; Human Prep C, w/NADPH, 60 min) was 0.035 nmole equivalents and the UNKS ([3]; Human Prep C, w/NADPH, 60 min) was 0.139 nmole equivalents. The TAC ([3]; Human Prep C, w/out NADPH, 60 min) was 1.07 nmole equivalents, the 1-OH ([3]; Human Prep D, w/NADPH, 60 min) was 0.201 nmole equivalents and the TAC ([3]; Human Prep D, w/NADPH, 60 min) was 0.803 nmole equivalents. For the same compound, the TAC ([3]; Human Prep D, w/out NADPH, 60 min) was 1.086 nmole equivalents, the extent of metabolism ([3]; human liver preparation D) was “only partial tacrine turnover” and the major product detected ([3]; human liver preparations) was 1-hydroxytacrine with minor amounts of the 2- and 4-hydroxytacrine regioisomers. The extent of metabolism ([3]; human liver preparations B and C, within 60 min) was “completely metabolized”, the “effect on 1-hydroxytacrine metabolism by P4501A2” value (P4501A2) was “inhibited” and the 1-OH ([4]; I induced Rat, w/NADPH, 60 min) was 1.57 nmole equivalents. For the same compound, the “POLAR UNKS” value ([4]; I induced Rat, w/NADPH, 60 min) was 0.083 nmole equivalents, the TAC ([4]; I induced Rat, 60 min) was 1.14 nmole equivalents and the 1-OH [4, 11] was 0.790 nmole equivalents. The 4-OH [4, 11] was 0.018 nmole equivalents, the “POLAR UNKS” value [4, 11] was 0.009 nmole equivalents and the UNKS [4, 11] was 0.091 nmole equivalents. For the same compound, the TAC ([4]; MC induced Rat, 60 min) was 1.16 nmole equivalents, the 1-OH [4, 12] was 0.994 nmole equivalents and the 2-OH [4, 12] was 0.088 nmole equivalents. The “POLAR UNKS” value [4, 12] was 0.022 nmole equivalents, the TAC ([4]; Noninduced Rat, 60 min) was 1.22 nmole equivalents and the 1-OH [4, 13] was 1.15 nmole equivalents. The 2-OH [4, 13] was 0.144 nmole equivalents, the “POLAR UNKS” value [4, 13] was 0.026 nmole equivalents and the TAC ([4]; PB induced Rat, 60 min) was 1.20 nmole equivalents. The 1-hydroxytacrine produced ([4]; rat vs human preparations) was “more 1-hydroxytacrine produced as compared to human preparations”, the “detection of a hydroxylamine metabolite” value [5] was “unsuccessful” and the “irreversible binding of 14C-tacrine-derived radioactivity to microsomal protein” value [5] was “no detectable”. For the same compound, the “rate and products of metabolism” value [5] was “rapidly metabolized not only to 1-hydroxytacrine but also to 7-hydroxytacrine”, the “Percent Bound” value [6, 14] was 4.62 ± 0.73% and the “Tacrine equivalents irreversibly bound to 1 mg microsomal protein” value (shortened to “Tacrine equivalents irreversibly bound”) [6, 14] was 0.042 ± 0.004 nmol. For the same compound, the “Tacrine equivalents irreversibly bound” value ([6]; I induced Rat, without NADPH) was 0.003 nmol, the “Percent Bound” value [6, 15] was 14.5 ± 0.37% and the “Tacrine equivalents irreversibly bound” value [6, 15] was 0.139 ± 0.010 nmol. For the same compound, the “Tacrine equivalents irreversibly bound” value ([6]; MC induced Rat, without NADPH) was 0.003 nmol, the “Percent Bound” value [6, 16] was 5.97 ± 0.68% and the “Tacrine equivalents irreversibly bound” value [6, 16] was 0.041 ± 0.001 nmol. For the same compound, the “Tacrine equivalents irreversibly bound” value ([6]; Noninduced Rat, without NADPH) was 0.003 nmol, the “Percent Bound” value [6, 17] was 4.49 ± 0.85% and the “Tacrine equivalents irreversibly bound” value [6, 17] was 0.034 ± 0.006 nmol. For the same compound, the “Tacrine equivalents irreversibly bound” value ([6]; PB induced Rat, without NADPH) was 0.002 nmol, the “Tacrine equivalents irreversibly bound” value ([6]; Table 3, MC induced Rat, NADPH, N = 3) was 0.139 ± 0.010 nmol and the Km (P450 1A2 [7]) was less than 5 µM. For the same compound, the “irreversible binding of derived radioactivity to microsomal protein” value (P450 1A2 [8]; Table 6, deletion of NADPH) was “no irreversible”, the “Tacrine equivalents irreversibly bound” value (P450 1A2 [8]; Table 6, tacrine 0.3 μM, enoxacin 0.0, 20 min, N = 3, SD) was 0.040 and the “Tacrine equivalents irreversibly bound” value (P450 1A2 [8]; tacrine 0.5 μM alone, 5 min, N = 3, SD) was 0.022 ± 0.005 nmol. For the same compound, the “Tacrine equivalents irreversibly bound” value (P450 1A2 [8]; tacrine 0.5 μM alone, 10 min) was 0.048 ± 0.006 nmol, the “Tacrine equivalents irreversibly bound” value (P450 1A2 [8]; tacrine 0.5 μM alone, 20 min) was 0.096 ± 0.006 nmol and the “Tacrine equivalents irreversibly bound” value (P450 1A2 [8]; tacrine 0.5 μM alone, 45 min) was 0.148 ± 0.024 nmol. For the same compound, the “tacrine-equivalents bound per mg hepatic protein” value (rat hepatocytes; 5 min, N = 2) was 0.020 nmol, the “tacrine-equivalents bound per mg hepatic protein” value (rat hepatocytes; 15 min) was 0.037 nmol and the “tacrine-equivalents bound per mg hepatic protein” value (rat hepatocytes; 30 min) was 0.061 nmol. For the same compound, the “tacrine-equivalents bound per mg hepatic protein” value (rat hepatocytes; 60 min) was 0.128 nmol, the “tacrine-equivalents bound per mg hepatic protein” value (rat hepatocytes; 90 min) was 0.183 nmol and the “tacrine-equivalents bound per mg hepatic protein” value (rat hepatocytes; 120 min) was 0.294 nmol. The “tacrine-equivalents bound per mg hepatic protein” value (rat hepatocytes; 180 min) was 0.377 nmol, the extent of metabolism ([9]; animals and man) was “extensively metabolized” and the “formation of THA metabolites in serum” value ([9]; patients given THA) was “very rapid formation of THA metabolites”. For the same compound, the “liver enzymes after administration” value ([9]; patients) was “elevations of liver enzymes are found in some patients”.
